Data as given in the supplement of paper PMC10307832.

Tests used:
Test in all cases: relative viability (nuclei count vs DMSO), 5 days (fraction); higher = more cells survive
BAM7 + Pemetrexed = compound: CCOC1=CC=CC=C1N=NC2=C(NN(C2=O)C3=NC(=CS3)C4=CC=CC=C4)C [BAM7] + Nc1nc2[nH]cc(CCc3ccc(C(=O)N[C@@H](CCC(=O)O)C(=O)O)cc3)c2c(=O)[nH]1 [Pemetrexed] (partner 0.2 µM)
Method in brief: (§1)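 Medians of duplicate plates are given as relative viability. That measure is the nuclei count in treated wells divided by the count in vehicle wells. Counts were taken on 4× images of lung cancer cell lines in 1536-well plates, 5 days after pin-tool dosing the day after seeding with one drug alone or a fixed anchor-drug dose plus five library-drug doses (not always all listed) in √10 steps.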

BAM7 + Bortezomib = compound: CCOC1=CC=CC=C1N=NC2=C(NN(C2=O)C3=NC(=CS3)C4=CC=CC=C4)C [BAM7] + CC(C)C[C@H](NC(=O)[C@H](Cc1ccccc1)NC(=O)c1cnccn1)B(O)O [Bortezomib] (partner 0.002 µM)
Method in brief: as §1

[1] = compound: CCn1c(-c2nonc2N)nc2c(C#CC(C)(C)O)ncc(OC[C@H]3CCCNC3)c21 + N=C(N)NC(=N)NCCc1ccccc1 [Phenformin] (partner 250 µM)
Method in brief: as §1

BAM7 = compound: CCOC1=CC=CC=C1N=NC2=C(NN(C2=O)C3=NC(=CS3)C4=CC=CC=C4)C [BAM7]
Method in brief: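 Vehicle-anchored 1536-well plates of lung cancer cell lines, held overnight at 37 °C, were pinned with five library-drug doses (not always all listed) spaced by √10. No medium change followed over the next 5 days, after which the cells were fixed, permeabilised and Hoechst-stained together and imaged at 4×. Nuclei were counted with MetaXpress, and viability is treated-well nuclei over vehicle-well nuclei, taken as a median across plates. Plates passed with control CV below 25% and at least one doubling.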

With NCI-H2228 the relative viability (BAM7 + Pemetrexed; first compound 0.5 µM) was 0.355, the relative viability (BAM7 + Pemetrexed; first compound 5 µM) was 0.341 and the relative viability (BAM7 + Pemetrexed; first compound 15.81 µM) was 0.316. It also gave a relative viability (BAM7 + Pemetrexed; first compound 50 µM) of 0.351, a relative viability (BAM7 + Bortezomib; first compound 0.5 µM) of 1.31 and a relative viability (BAM7 + Bortezomib; first compound 5 µM) of 1.31. It also gave a relative viability (BAM7 + Bortezomib; first compound 15.81 µM) of 0.798, a relative viability (BAM7 + Bortezomib; first compound 50 µM) of 1.21 and a relative viability ([1]; first compound 0.01 µM) of 0.363. The relative viability ([1]; first compound 0.03162 µM) was 0.36, the relative viability ([1]; first compound 0.1 µM) was 0.298 and the relative viability ([1]; first compound 0.3162 µM) was 0.277. For the same cell line, the relative viability ([1]; first compound 1 µM) was 0.204, the relative viability (BAM7; 0.5 µM) was 1.06 and the relative viability (BAM7; 5 µM) was 0.968. The relative viability (BAM7; 15.81 µM) was 0.914 and the relative viability (BAM7; 50 µM) was 1.2.
Cell Line NCI-H2347 has a relative viability (BAM7 + Pemetrexed; first compound 0.5 µM) of 0.426, a relative viability (BAM7 + Pemetrexed; first compound 5 µM) of 0.424 and a relative viability (BAM7 + Pemetrexed; first compound 15.81 µM) of 0.422. For the same cell line, the relative viability (BAM7 + Pemetrexed; first compound 50 µM) was 0.415, the relative viability (BAM7 + Bortezomib; first compound 0.5 µM) was 1 and the relative viability (BAM7 + Bortezomib; first compound 5 µM) was 1.27. It also gave a relative viability (BAM7 + Bortezomib; first compound 15.81 µM) of 1.32, a relative viability (BAM7 + Bortezomib; first compound 50 µM) of 1.2 and a relative viability ([1]; first compound 0.01 µM) of 0.442. It also gave a relative viability ([1]; first compound 0.03162 µM) of 0.307, a relative viability ([1]; first compound 0.3162 µM) of 0.381 and a relative viability ([1]; first compound 1 µM) of 0.396. The relative viability (BAM7; 0.5 µM) was 1.13, the relative viability (BAM7; 5 µM) was 1.11 and the relative viability (BAM7; 15.81 µM) was 1.06. For the same cell line, the relative viability (BAM7; 50 µM) was 1.03.
NCI-H2405 was tested, and the relative viability (BAM7 + Pemetrexed; first compound 0.5 µM) was 1.11, the relative viability (BAM7 + Pemetrexed; first compound 5 µM) was 1.06 and the relative viability (BAM7 + Pemetrexed; first compound 15.81 µM) was 1.09. It also gave a relative viability (BAM7 + Pemetrexed; first compound 50 µM) of 1.11, a relative viability (BAM7 + Bortezomib; first compound 0.5 µM) of 1.02 and a relative viability (BAM7 + Bortezomib; first compound 5 µM) of 1.04. The relative viability (BAM7 + Bortezomib; first compound 15.81 µM) was 1.01, the relative viability (BAM7 + Bortezomib; first compound 50 µM) was 0.991 and the relative viability ([1]; first compound 0.01 µM) was 0.402. The relative viability ([1]; first compound 0.03162 µM) was 0.385, the relative viability ([1]; first compound 0.1 µM) was 0.295 and the relative viability ([1]; first compound 0.3162 µM) was 0.355. For the same cell line, the relative viability ([1]; first compound 1 µM) was 0.344, the relative viability (BAM7; 0.5 µM) was 0.989 and the relative viability (BAM7; 5 µM) was 1.13. For the same cell line, the relative viability (BAM7; 15.81 µM) was 1.03 and the relative viability (BAM7; 50 µM) was 1.08.
For NCI-H3122, the relative viability (BAM7 + Pemetrexed; first compound 0.5 µM) was 0.194, the relative viability (BAM7 + Pemetrexed; first compound 5 µM) was 0.191 and the relative viability (BAM7 + Pemetrexed; first compound 15.81 µM) was 0.196. It also gave a relative viability (BAM7 + Pemetrexed; first compound 50 µM) of 0.195, a relative viability (BAM7 + Bortezomib; first compound 0.5 µM) of 1.06 and a relative viability (BAM7 + Bortezomib; first compound 5 µM) of 1.13. For the same cell line, the relative viability (BAM7 + Bortezomib; first compound 15.81 µM) was 1.04, the relative viability (BAM7 + Bortezomib; first compound 50 µM) was 1.05 and the relative viability ([1]; first compound 0.01 µM) was 0.401. It also gave a relative viability ([1]; first compound 0.03162 µM) of 0.364, a relative viability ([1]; first compound 0.1 µM) of 0.447 and a relative viability ([1]; first compound 0.3162 µM) of 0.389. The relative viability ([1]; first compound 1 µM) was 0.374, the relative viability (BAM7; 0.5 µM) was 1.02 and the relative viability (BAM7; 5 µM) was 1.09. It also gave a relative viability (BAM7; 15.81 µM) of 1.01 and a relative viability (BAM7; 50 µM) of 1.01.
For PC-3 [JPC-3], the relative viability (BAM7 + Pemetrexed; first compound 0.5 µM) was 1.17, the relative viability (BAM7 + Pemetrexed; first compound 5 µM) was 1.13 and the relative viability (BAM7 + Pemetrexed; first compound 15.81 µM) was 1.05. It also gave a relative viability (BAM7 + Pemetrexed; first compound 50 µM) of 1.08, a relative viability (BAM7 + Bortezomib; first compound 0.5 µM) of 0.824 and a relative viability (BAM7 + Bortezomib; first compound 5 µM) of 0.751. It also gave a relative viability (BAM7 + Bortezomib; first compound 15.81 µM) of 0.782, a relative viability (BAM7 + Bortezomib; first compound 50 µM) of 0.585 and a relative viability ([1]; first compound 0.01 µM) of 0.504. The relative viability ([1]; first compound 0.03162 µM) was 0.451, the relative viability ([1]; first compound 0.1 µM) was 0.469 and the relative viability ([1]; first compound 0.3162 µM) was 0.463. The relative viability ([1]; first compound 1 µM) was 0.474, the relative viability (BAM7; 0.5 µM) was 0.967 and the relative viability (BAM7; 5 µM) was 1.02. The relative viability (BAM7; 15.81 µM) was 0.974 and the relative viability (BAM7; 50 µM) was 0.917.
Work on PC-14 yielded a relative viability (BAM7 + Pemetrexed; first compound 0.5 µM) of 0.128, a relative viability (BAM7 + Pemetrexed; first compound 5 µM) of 0.129 and a relative viability (BAM7 + Pemetrexed; first compound 15.81 µM) of 0.142. The relative viability (BAM7 + Pemetrexed; first compound 50 µM) was 0.165, the relative viability (BAM7 + Bortezomib; first compound 0.5 µM) was 0.918 and the relative viability (BAM7 + Bortezomib; first compound 5 µM) was 1.03. For the same cell line, the relative viability (BAM7 + Bortezomib; first compound 15.81 µM) was 0.846, the relative viability (BAM7 + Bortezomib; first compound 50 µM) was 0.806 and the relative viability ([1]; first compound 0.01 µM) was 0.448. It also gave a relative viability ([1]; first compound 0.03162 µM) of 0.519, a relative viability ([1]; first compound 0.1 µM) of 0.597 and a relative viability ([1]; first compound 0.3162 µM) of 0.531. It also gave a relative viability ([1]; first compound 1 µM) of 0.609, a relative viability (BAM7; 0.5 µM) of 1.04 and a relative viability (BAM7; 5 µM) of 1.06. For the same cell line, the relative viability (BAM7; 15.81 µM) was 1 and the relative viability (BAM7; 50 µM) was 1.01.
In the case of RERF-LC-KJ, the relative viability (BAM7 + Pemetrexed; first compound 0.5 µM) is reported as 0.518, the relative viability (BAM7 + Pemetrexed; first compound 5 µM) is reported as 0.53 and the relative viability (BAM7 + Pemetrexed; first compound 15.81 µM) is reported as 0.464. For the same cell line, the relative viability (BAM7 + Pemetrexed; first compound 50 µM) was 0.529, the relative viability (BAM7 + Bortezomib; first compound 0.5 µM) was 1.05 and the relative viability (BAM7 + Bortezomib; first compound 5 µM) was 1.01. For the same cell line, the relative viability (BAM7 + Bortezomib; first compound 15.81 µM) was 0.948, the relative viability (BAM7 + Bortezomib; first compound 50 µM) was 0.972 and the relative viability ([1]; first compound 0.01 µM) was 0.391. The relative viability ([1]; first compound 0.03162 µM) was 0.408, the relative viability ([1]; first compound 0.1 µM) was 0.438 and the relative viability ([1]; first compound 0.3162 µM) was 0.356. The relative viability ([1]; first compound 1 µM) was 0.416, the relative viability (BAM7; 0.5 µM) was 0.94 and the relative viability (BAM7; 5 µM) was 0.913. It also gave a relative viability (BAM7; 15.81 µM) of 0.745 and a relative viability (BAM7; 50 µM) of 0.812.
SK-LU-1 showed a relative viability (BAM7 + Pemetrexed; first compound 0.5 µM) of 0.906, a relative viability (BAM7 + Pemetrexed; first compound 5 µM) of 1.07 and a relative viability (BAM7 + Pemetrexed; first compound 15.81 µM) of 0.905. It also gave a relative viability (BAM7 + Pemetrexed; first compound 50 µM) of 0.99, a relative viability (BAM7 + Bortezomib; first compound 0.5 µM) of 1.18 and a relative viability (BAM7 + Bortezomib; first compound 5 µM) of 1.46. For the same cell line, the relative viability (BAM7 + Bortezomib; first compound 15.81 µM) was 1.3, the relative viability (BAM7 + Bortezomib; first compound 50 µM) was 1.39 and the relative viability ([1]; first compound 0.01 µM) was 0.552. The relative viability ([1]; first compound 0.03162 µM) was 0.575, the relative viability ([1]; first compound 0.1 µM) was 0.455 and the relative viability ([1]; first compound 0.3162 µM) was 0.48. The relative viability ([1]; first compound 1 µM) was 0.537, the relative viability (BAM7; 0.5 µM) was 1.04 and the relative viability (BAM7; 5 µM) was 1.24. For the same cell line, the relative viability (BAM7; 15.81 µM) was 0.962 and the relative viability (BAM7; 50 µM) was 1.13.
In the case of SW 1573, the relative viability (BAM7 + Pemetrexed; first compound 0.5 µM) is reported as 0.843, the relative viability (BAM7 + Pemetrexed; first compound 5 µM) is reported as 0.822 and the relative viability (BAM7 + Pemetrexed; first compound 15.81 µM) is reported as 0.801. The relative viability (BAM7 + Pemetrexed; first compound 50 µM) was 0.823, the relative viability (BAM7 + Bortezomib; first compound 0.5 µM) was 0.953 and the relative viability (BAM7 + Bortezomib; first compound 5 µM) was 1.07. It also gave a relative viability (BAM7 + Bortezomib; first compound 15.81 µM) of 1.07, a relative viability (BAM7 + Bortezomib; first compound 50 µM) of 0.972 and a relative viability ([1]; first compound 0.01 µM) of 0.344. The relative viability ([1]; first compound 0.03162 µM) was 0.274, the relative viability ([1]; first compound 0.1 µM) was 0.24 and the relative viability ([1]; first compound 0.3162 µM) was 0.209. It also gave a relative viability ([1]; first compound 1 µM) of 0.194, a relative viability (BAM7; 0.5 µM) of 1.03 and a relative viability (BAM7; 5 µM) of 1.18. The relative viability (BAM7; 15.81 µM) was 0.969 and the relative viability (BAM7; 50 µM) was 1.08.
